According to patent US8449635B2, “Abrasive articles and methods for making same” (Saint-Gobain Abrasives, Inc., priority 2007, dated 2013):

Assay: Solubility of photoinitiator
Type: physicochemical

Solubility (wt %): <5 wt %
Structure (SMILES): Cc1cc(C)c(C(=O)P(=O)(C(=O)c2c(C)cc(C)cc2C)c2ccccc2)c(C)c1 [Irgacure 819, bis(2,4,6-trimethylbenzoyl) phenyl phosphine oxide]
